PMC6291207 (ChemMedChem, 2018)

Columns and labels:
Aiolos = Aiolos (Homo sapiens, UniProt Q96SW2+Q9UKT9); conditions: for Dmax (maximal degradation achieved), Aiolos: MM1S cells, 24 hours treatment, normalized to tubulin
CRBN = CRBN (Homo sapiens, UniProt Q96SW2); test: SPR binding assay with immobilized His-tagged CRBN; conditions: for Kd: read-out: CRBN Kd, surface plasmon resonance, average of at least 2 experiments, errors = standard error of the mean, N.B. = no binding observed
MM1S cells = conditions: read-out: IC50 inhibition of cell proliferation, 72 hours, MTS assay

Chain of Aiolos (Q9UKT9 whole entry): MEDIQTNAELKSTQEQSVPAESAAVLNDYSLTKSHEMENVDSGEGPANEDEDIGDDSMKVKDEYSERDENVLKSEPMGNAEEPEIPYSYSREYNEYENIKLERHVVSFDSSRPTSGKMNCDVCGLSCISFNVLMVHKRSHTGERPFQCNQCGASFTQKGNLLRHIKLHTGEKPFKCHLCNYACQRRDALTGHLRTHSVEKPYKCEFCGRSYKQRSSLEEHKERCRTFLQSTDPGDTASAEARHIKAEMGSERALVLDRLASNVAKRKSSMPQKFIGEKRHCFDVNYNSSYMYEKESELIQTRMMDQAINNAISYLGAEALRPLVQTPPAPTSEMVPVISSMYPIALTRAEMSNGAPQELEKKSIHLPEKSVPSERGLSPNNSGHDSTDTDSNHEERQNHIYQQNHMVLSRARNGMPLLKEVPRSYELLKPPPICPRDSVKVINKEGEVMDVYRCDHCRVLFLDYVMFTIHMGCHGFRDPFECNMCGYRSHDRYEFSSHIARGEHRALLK
Chain of Aiolos (Q96SW2 whole entry): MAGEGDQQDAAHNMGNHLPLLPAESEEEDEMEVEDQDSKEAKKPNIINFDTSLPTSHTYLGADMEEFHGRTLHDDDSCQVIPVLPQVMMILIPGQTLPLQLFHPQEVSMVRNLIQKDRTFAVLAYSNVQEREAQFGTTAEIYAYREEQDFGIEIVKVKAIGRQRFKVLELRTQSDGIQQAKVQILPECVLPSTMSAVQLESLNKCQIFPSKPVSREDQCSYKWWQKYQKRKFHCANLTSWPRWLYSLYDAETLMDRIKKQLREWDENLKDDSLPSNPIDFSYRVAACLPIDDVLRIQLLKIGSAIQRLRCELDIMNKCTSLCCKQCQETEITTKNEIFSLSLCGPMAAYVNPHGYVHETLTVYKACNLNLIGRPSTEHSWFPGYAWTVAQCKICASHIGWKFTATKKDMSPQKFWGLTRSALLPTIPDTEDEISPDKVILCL
Chain of Aiolos (Q16531 whole entry partner): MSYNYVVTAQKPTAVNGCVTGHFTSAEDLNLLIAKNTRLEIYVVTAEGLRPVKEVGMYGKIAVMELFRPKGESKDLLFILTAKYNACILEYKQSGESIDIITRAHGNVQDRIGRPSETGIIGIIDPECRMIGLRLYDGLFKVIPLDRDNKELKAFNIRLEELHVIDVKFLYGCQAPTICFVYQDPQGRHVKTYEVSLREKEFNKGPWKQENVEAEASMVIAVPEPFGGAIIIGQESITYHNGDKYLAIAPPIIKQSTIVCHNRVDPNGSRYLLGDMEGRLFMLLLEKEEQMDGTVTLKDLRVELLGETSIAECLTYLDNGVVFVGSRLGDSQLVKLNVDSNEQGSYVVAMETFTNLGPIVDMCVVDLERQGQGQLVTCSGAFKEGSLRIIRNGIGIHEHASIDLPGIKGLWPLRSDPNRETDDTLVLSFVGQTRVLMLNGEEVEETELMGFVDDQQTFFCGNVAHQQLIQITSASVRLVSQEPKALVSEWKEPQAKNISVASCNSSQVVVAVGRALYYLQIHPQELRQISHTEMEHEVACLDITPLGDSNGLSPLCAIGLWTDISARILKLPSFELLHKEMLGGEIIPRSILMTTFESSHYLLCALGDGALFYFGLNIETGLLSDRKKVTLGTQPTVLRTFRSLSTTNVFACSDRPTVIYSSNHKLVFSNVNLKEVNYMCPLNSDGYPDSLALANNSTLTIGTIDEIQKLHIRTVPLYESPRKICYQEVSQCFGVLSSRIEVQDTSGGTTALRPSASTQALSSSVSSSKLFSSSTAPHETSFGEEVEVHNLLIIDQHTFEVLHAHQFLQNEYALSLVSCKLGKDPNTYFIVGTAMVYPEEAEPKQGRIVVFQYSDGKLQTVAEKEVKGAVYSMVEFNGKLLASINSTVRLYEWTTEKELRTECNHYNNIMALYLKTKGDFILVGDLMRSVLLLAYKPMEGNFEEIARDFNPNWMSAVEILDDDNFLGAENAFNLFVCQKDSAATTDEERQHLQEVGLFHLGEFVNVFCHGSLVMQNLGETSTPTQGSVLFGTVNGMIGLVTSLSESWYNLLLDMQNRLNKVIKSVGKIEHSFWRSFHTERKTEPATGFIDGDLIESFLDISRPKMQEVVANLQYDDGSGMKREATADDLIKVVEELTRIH
Chain of CRBN (Q96SW2 whole entry): as the sequence (Q96SW2 whole entry) above

Nc1cccc2c1C(=O)N(C1CCC(=O)NC1=O)C2=O (centres unmarked) [Compound 13, Pomalidomide, reference compound]
Dmax (Aiolos; MM1.S, read-out: Dmax (maximal degradation achieved), Aiolos): > 95%

O=C1CCC(N2C(=O)c3cccc(F)c3C2=O)C(=O)N1 (centres unmarked) [Compound 17]
fold less affinity for CRBN than Pomalidomide and Compound 19 (CRBN; compared with Pomalidomide and Compound 19): roughly 2 fold | Kd (CRBN): 558 ± 51 nM | IC50 (MM1S cells): 3570 nM | Dmax (maximal degradation achieved), Aiolos (Aiolos): 83%

Cc1cccc2c1C(=O)N(C1CCC(=O)NC1=O)C2=O (centres unmarked) [Compound 19]
Kd (CRBN): 325 ± 24 nM | IC50 (MM1S cells): 128 nM | Dmax (maximal degradation achieved), Aiolos (Aiolos): 85%
